Results: patent US5545669A, “Anti-inflammatory compounds” (priority 1994, dated 1996)

System: human neutrophils
Test: Assay (c): Arachidonic acid release assay, A23187-challenged human neutrophils
Type: cell-based
Conditions: calcium ionophore A23187 2 μM
Protocol: Human neutrophils are obtained in the laboratory using three different methods. One method uses leukophoresis packs from normal humans and neutrophils are isolated using the histopaque-1077 technique. The blood is centrifuged at 300×g for 10 minutes. The cell pellets are resuspended in PBS composed of 137 mM NaCI, 8.8 mM Na2HPO4, 1.5 mM KH2 PO4, 2.7 mM KCI (Dulbecco's Gibco Laboratories, Long Island, N.Y.) and layered over histopaque-1077 (Sigma, St. Louis, Mo.). The pellets are collected after centrifugation (300×g for 30 minutes) and washed once in PBS. The cell pellets are exposed briefly to deionized water to lyse any erythrocytes. The remaining cells are collected by centrifugation, suspended in PBS, counted and identified after cytospinning and staining. The final leukocyte preparation will be of greater than 95% purity and viability.
The second method isolates human neutrophils from fresh heparinized normal blood using the Histopaque-1077 technique. […] The remaining cells are collected by centrifugation, suspended in PBS, counted and identified after cytospinning and staining. […]
The third method isolates human neutrophils from freshly drawn heparinized normal blood using the Percoll technique. […] The neutrophils are suspended in PBS, counted and identified after cytospinning and staining. […]

**Q.** With `O=C(O)c1ccccc1Oc1ccc(C(F)(F)F)cc1NS(=O)(=O)c1cc(C(F)(F)F)cc(C(F)(F)F)c1` [Example 1, 2-[2-[3,5-Bis(trifluoromethyl)phenylsulfonamido]-4-trifluoromethylphenoxy]benzoic acid] as the compound, how does the “inhibition of arachidonic acid release” value read?
**A.** positive activity
